{"source": "patent US10682388B2", "about": "“Targeting of PELP1 in cancer therapy” (THE BOARD OF REGENTS OF THE UNIVERSITY OF TEXAS SYSTEM, priority 2014, dated 2020)", "key": {"ZR75 cells": {"tested_on": "ZR75 cells", "assay": "TUNEL assay", "assay_type": "cell-based, Human", "conditions": "10 μM, 24 hours, FIG. 5D", "method": "(§1) FIGS. 5A-D. (FIG. 5A) ZR75vec, ZR75PELP1, MCF7vec and MCF7PELP1 cells were plated in the top of a Boyden chamber transwell, treated with TAT, PIP1 or PIP2 (10 μM) and absorbance was measured at 12 hours in triplicate. (FIG. 5B) MCF7vec, MCFP7ELP1, ZR75vec and ZR75PELP1 cells were treated in triplicate with TAT, PIP1 or PIP2 (10 μM) every 3 days, fixed with methanol on day 10 and stained with crystal violet. Average colonies per well are shown. (FIG. 5C) ZR75vec and ZR75PELP1 cells were plated in triplicate in agar with 8% RPMI with TAT, PIP1 or PIP2 (10 μM). Colonies were counted on day 14, representative images are shown on right. (FIG. 5D) ZR75 cells were plated on coverslips in triplicate and treated with TAT or PIP1 (10 μM) for 24 hours. Cells were fixed with paraformaldehyde and labeled with TUNEL and DAPI, representative images are shown on right.\nZR75 and ZR75PELP1 cells were plated on coverslips in 8% RPMI and treated with peptide for 24 hours. Cells were labeled with in situ Cell Death Detection Kit (Roche) according to manufacturer's protocol, imaged by fluorescent microscopy and quantified."}, "[1]": {"tested_on": "ZRPELP1 and MCF7-PELP1 cells", "assay": "Mammosphere formation assay", "assay_type": "cell-based, Human", "conditions": "10 μM and 20 μM, FIG. 12", "method": "FIG. 12. Effect of PIP1 on mammosphere formation. Single-cell suspensions of ZR75-PELP1 were plated in triplicate wells at a density of 10,000 cells per ml in mammosphere medium in non-adherent plates. Cultures were treated with indicated concentration of PIP1 and mammospheres were counted after 7 days. ZR75PELP1 and MCF7PELP1 cells were FACS sorted for CD44-APC^high (Milteny Biotec) and CD24-PE^low (Milteny Biotec) cell surface markers. A single cell suspension of model cells ZR75-PELP1 were seeded in mammosphere media in a low adherent 96-well plate with TAT or PIP (10, 20 or 50 μM). Media containing peptide was added on day 4 and mammospheres were counted and imaged on day 8 (Shaw et al., 2012)."}, "[2]": {"tested_on": "ZR75, ZR75PELP1, MCF7 and MCF7PELP1 cells", "assay": "MTT proliferation assay, breast cancer cells with and without PELP1 overexpression", "assay_type": "cell-based, Human", "conditions": "10 μM every 3 days, day 7, FIG. 4A", "method": "FIGS. 4A-E. (FIG. 4A) ZR75vec, ZR75PELP1, MCF7vec and MCF7PELP1 cells were treated in triplicate with TAT, PIP1 or PIP1 deletions (Del1, Del2, Del3) at 10 uM every 3 days and proliferation was measured by MTT assay on day 7. (FIG. 4B) ZRPELP1 cells were transfected with ERE-luciferase and treated with TAT, PIP1, or PIP2 for 24 hours and with estradiol for 12 hours. Relative luciferase activity was measured in triplicate. (FIG. 4C) ZR75 cells were grown in 5% DCC media for 72 hours, treated with TAT or PIP1 every 3 days, and treated with estradiol 10^−7 M for 12 hours. Proliferation was measured in triplicate on day 7 by MTT assay at 595 nm. (FIG. 4D) MCF7-Letrozole resistant cells were grown in 5% DCC media for 72 hours, treated with TAT, PIP1 or PIP2 every 3 days, and letrozole or estradiol 10^−7 M for 12 hours. Proliferation was measured in triplicate on day 7 by MTT assay at 595 nm. […] Proliferation was measured in triplicate on day 7 by MTT assay at 595 nm.\nCell proliferation rates were measured by using MTT Cell Viability Assay in 96-well plates. […] After an overnight incubation, cells were treated with varying concentrations of the peptides for 3-7 days and growth inhibition was determined by using traditional MTT assay (Sigma) following manufacturer's instructions."}, "[3]": {"tested_on": "ERE-luciferase in ZR75 cells", "assay": "ERE-luciferase reporter gene assay in ZR75 cells transfected with PELP1 and/or G9a", "assay_type": "cell-based, Human", "conditions": "FIG. 2D", "method": "FIGS. 2A-D. (FIG. 2A) Immunoprecipitation was performed on nuclear lysates obtained from ZRPELP1 cells grown in 5% DCC for 72 hours and treated with estradiol 10^−7 M for 12 hours. PELP1 was immunoprecipitated and western blotting was performed for PELP1 and G9a expression with IgG as the control. (FIG. 2B) Various fragments of PELP1 bound to glutathione beads were incubated with recombinant G9a for 2 hours. Beads were washed, run on an SDS-PAGE gel and immunoblotted for G9a expression. GST tag alone is shown as control. (FIG. 2C) Recombinant G9a-GST was bound to glutathione beads and incubated with purified PELP1 and peptides for 2 hours. Beads were washed and run on SDS-PAGE gel. (FIG. 2D) ZR75 cells were transfected with ERE-luciferase, PELP1 and/or G9a plasmids and treated with peptide for 24 hours and estradiol 10^−7 M for 12 hours. Relative luciferase activity is shown.\nModel cells were seeded in 6-well plates. After overnight incubation, the cells were transfected with ERE-Luc plasmids using fugene for 6 h. Then, 24 hours after transfection, cells were incubated in 5% DCC media for estrogen starvation and then treated with TAT or PIP1/PIP2 for an additional 24 hours and estradiol (10^−8) for 12 hours. […] Luciferase activity was measured by using the luciferase assay system (Promega, Madison, Wis.)."}, "BG1 cells": {"tested_on": "BG1 cells", "assay": "Ovarian cancer cell proliferation", "assay_type": "cell-based", "conditions": "BG1, FIG. 14", "method": "FIG. 14. […] Cell proliferation rates were measured by using MTT Cell Viability Assay in 96-well plates. Model cells were seeded in 96-well plates (1×10^3 cells/well) in DMEM or RPMI medium containing 10% serum. After an overnight incubation, cells were treated with varying concentrations of the peptides for 3-7 days and growth inhibition was determined by using traditional MTT assay (Sigma) following manufacturer's instructions."}, "ZRPELP1 cells": {"tested_on": "ZRPELP1 cells", "assay": "Soft agar colony formation assay", "assay_type": "cell-based, Human", "conditions": "10 μM every three days, colonies counted day 14, FIG. 5C", "method": "as §1\nModel cells MCF7, MCF7-PELP1, ZR75 and ZR75-PELP1 were seeded in a 0.6% agar solution with RPMI/10% FBS over a base agar layer in 35 mm plates in triplicate with TAT, PIP1, or PIP2 (10 μM). Media with peptide was added every 3 days and colonies were counted after 14 days."}}, "note": "Entries after “also recorded” stand apart in the source; their conditions may differ.", "data": [{"sequence": "GRKKRRQRRRGGMVEFRWSCPGRRKAKA [PIP1]", "values": [{"measurement": "apoptosis by TUNEL assay", "setting": "ZR75 cells", "value": "induces apoptosis"}, {"measurement": "number of mammospheres", "setting": "[1]", "value": "significant decrease in the number of mammospheres"}, {"measurement": "size of the mammospheres", "setting": "[1]", "value": "substantially decreased"}, {"measurement": "proliferation by MTT assay", "setting": "[2]", "value": "significant decrease"}, {"measurement": "estrogen response synergistically activated by PELP1 and G9a (ERE-luciferase)", "setting": "[3]", "value": "inhibited"}, {"measurement": "proliferation of ovarian cancer cells", "setting": "BG1 cells", "value": "dose-dependent decrease in the proliferation; also recorded: inhibits proliferation of ovarian cancer cells"}, {"measurement": "colony formation in soft agar (anchorage independence)", "setting": "ZRPELP1 cells", "value": "substantial decrease in colony formation"}]}]}
